US9249105B2, “Crystalline forms of an alkoxyimidazol-1-ylmethyl biphenyl carboxylic acid” (Theravance Biopharma R&D IP, LLC, priority 2010, dated 2016)
Structures can show the parent of a compound that is named as a salt.

Legend:
AT1 receptor = target: T1, AT1 receptor (Homo sapiens, UniProt P30556); assay: AT1 receptor binding (inhibitory constant)
T1 sequence (P30556 1-359): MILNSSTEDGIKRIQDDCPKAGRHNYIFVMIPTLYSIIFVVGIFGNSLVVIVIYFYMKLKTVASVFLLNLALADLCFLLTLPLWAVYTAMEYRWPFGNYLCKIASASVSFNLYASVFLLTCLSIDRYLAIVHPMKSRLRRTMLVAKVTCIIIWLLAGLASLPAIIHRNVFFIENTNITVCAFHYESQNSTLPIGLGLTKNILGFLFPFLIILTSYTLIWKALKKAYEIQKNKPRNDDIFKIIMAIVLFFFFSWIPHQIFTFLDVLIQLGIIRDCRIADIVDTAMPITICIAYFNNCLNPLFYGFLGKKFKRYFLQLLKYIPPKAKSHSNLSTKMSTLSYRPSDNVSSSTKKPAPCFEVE

[1] = Thermal stability on storage, purity by HPLC; format: physicochemical; conditions: 40° C. (open container), 75% relative humidity, one month; for Purity Change: HPLC area percentage (% AUC)
Protocol: Weighed samples of the crystalline materials were stored at 40° C. (open container) and 75% relative humidity, for one month. The samples were then analyzed by the following HPLC method:
Column: Agilent Zorbox SB-C18, 4.6×250 mm, 5 μm (Part No. 880975-902). Mobile Phase A: 80% H2O, 20% MeCN, 0.01% TFA. Mobile Phase B: 80% MeCN, 20% H2O, 0.01% TFA. Flow rate: 1 mL/min. Injection Volume: 20 μL. Detector: 250 nm.
The purity of the samples was determined by HPLC area percentage (% AUC).

[2] = Dynamic moisture sorption (DMS) assessment; format: physicochemical; conditions: 25° C.
Protocol: Dynamic moisture sorption (DMS) measurements were performed for each crystalline form using a VTI atmospheric microbalance, SGA-100 system (VTI Corp., Hialeah, Fla. 33016). A weighed sample was used and the humidity was set at the ambient value at the start of the analysis. The DMS analysis consisted of a scan rate of 5% RH/step over the full humidity range of 5% RH to 90% RH. The DMS run was performed isothermally at 25° C.

[3] = Solubility in buffers over 24 hours; format: physicochemical; conditions: pH>3, room temperature, FIG. 16
Protocol: Samples of the crystalline materials were evaluated over a 24 hour period at several pH ranges. The following buffer systems were used: • HCl buffer pH @ 1.15 • HCl buffer pH @ 1.94 • Potassium biphthate buffer pH @ 2.97 • Acetate buffer pH @ 4.17 • Acetate buffer pH @ 5.16 • Phosphate buffer pH @ 6.04 • Phosphate buffer pH @ 7.0
Samples (7-8 mg) of the crystalline materials were combined with 2 mL of each of the buffers in a 5 mL glass vial. The vials were then mounted onto an automatic rotator and rotate for 24 hours at room temperature. The resulting suspensions were filtered using a 0.45 μm filter (PVDF membrane) into a clean vial for HPLC analysis.

[4] = Reslurrying of hemiedisylate salt form I and form II; format: physicochemical; conditions: EtOH/MTBE with or without water, room temperature
Protocol: (§1) Hemiedisylate salt form II (50 mg, 80 μmol) and hemiedisylate salt form I (50 mg, 80 μmol) were combined with a premixed solution of EtOH (420 μL) and MTBE (1.6 mL, 13 mmol). The mixture was capped and stirred at room temperature. The resulting solids were filtered and washed with dioxane to yield a solid (86 mg), which was determined to be hemiedisylate salt form II.
as §1, with “mmol). Water (20 μL) was added and the” for “mmol). The”, “solid (67” for “solid (86”

[5] = Differential scanning calorimetry (thermal stability); format: physicochemical; conditions: heating ramp 10° C./min
Protocol: Differential scanning calorimetry (DSC) experiments were performed using a TA Instruments Model Q-100 module with a Thermal Analyst controller. Data were collected and analyzed using TA Instruments Universal Analysis software. A sample of each crystalline form was accurately weighed into a covered aluminum pan. After a 5 minute isothermal equilibration period at 5° C., the sample was heated using a linear heating ramp of 10° C./min from 0° C. to 200° C.

CCOc1nc(CC)c(CNC(=O)[C@@H](S)CC(C)C)n1Cc1ccc(-c2ccccc2C(=O)O)cc1F [compound of formula I, 4′-{2-ethoxy-4-ethyl-5-[((S)-2-mercapto-4-methylpentanoylamino)methyl]imidazol-1-ylmethyl}-3′-fluorobiphenyl-2-carboxylic acid]
Ki (AT1 receptor): ≤ 100 nM

CCOc1nc(CC)c(CNC(=O)[C@@H](S)CC(C)C)n1Cc1ccc(-c2ccccc2C(=O)O)cc1F [freebase form, 4′-{2-ethoxy-4-ethyl-5-[((S)-2-mercapto-4-methylpentanoylamino)methyl]imidazol-1-ylmethyl}-3′-fluorobiphenyl-2-carboxylic acid, reference compound]
Purity Change [1]: −2.9%

CCOc1nc(CC)c(CNC(=O)[C@@H](S)CC(C)C)n1Cc1ccc(-c2ccccc2C(=O)O)cc1F [hemiedisylate form II, Crystalline Hemiedisylate Salt Form II of 4′-{2-Ethoxy-4-ethyl-5-[((S)-2-mercapto-4-methylpentanoylamino)methyl]imidazol-1-ylmethyl}-3′-fluorobiphenyl-2-carboxylic Acid]
weight gain, humidity range 5% RH up to 90% RH ([2]; 5% RH to 90% RH): about 0.16%
weight gain when exposed to up to 70% RH [2]: less than 0.10%
thermal stability on storage [1]: more stable than the previously known freebase form
Purity Change [1]: −0.3%
solubility compared with the freebase [3]: more soluble than the freebase
relative stability of crystalline forms on reslurrying [4]: more stable than crystalline hemiedisylate salt form I
temperature below which no significant thermal decomposition is seen (DSC) [5]: ≥ 182 °C

CCOc1nc(CC)c(CNC(=O)[C@@H](S)CC(C)C)n1Cc1ccc(-c2ccccc2C(=O)O)cc1F [hemiedisylate salt form I, Crystalline Hemiedisylate Salt Form I of 4′-{2-Ethoxy-4-ethyl-5-[((S)-2-mercapto-4-methylpentanoylamino)methyl]imidazol-1-ylmethyl}-3′-fluorobiphenyl-2-carboxylic Acid]
weight gain, humidity range 5% RH up to 90% RH ([2]; 5% RH to 90% RH): about 0.38%
weight gain when exposed to up to 70% RH [2]: less than 0.26%
temperature below which no significant thermal decomposition is seen (DSC) [5]: ≥ 158 °C

CCOc1nc(CC)c(CNC(=O)[C@@H](S)CC(C)C)n1Cc1ccc(-c2ccccc2C(=O)O)cc1F [heminapadisylate form, Crystalline Heminapadisylate Salt of 4′-{2-Ethoxy-4-ethyl-5-[((S)-2-mercapto-4-methylpentanoylamino)methyl]imidazol-1-ylmethyl}-3′-fluorobiphenyl-2-carboxylic Acid]
weight gain, humidity range 5% RH up to 90% RH ([2]; 5% RH to 90% RH): about 0.97%
weight gain when exposed to up to 70% RH [2]: less than 0.68%
thermal stability on storage [1]: more stable than the previously known freebase form
Purity Change [1]: −0.1%
solubility compared with the freebase [3]: more soluble than the freebase
temperature below which no significant thermal decomposition is seen (DSC) [5]: ≥ 181 °C

CCOc1nc(CC)c(CNC(=O)[C@@H](S)CC(C)C)n1Cc1ccc(-c2ccccc2C(=O)O)cc1F [mono-oxalate salt, Crystalline Mono-oxalate Salt of 4′-{2-Ethoxy-4-ethyl-5-[((S)-2-mercapto-4-methylpentanoylamino)methyl]imidazol-1-ylmethyl}-3′-fluorobiphenyl-2-carboxylic Acid]
DMS moisture sorption/desorption behaviour ([2]; 5% RH to 90% RH): picks up moisture gradually from 5% RH to 90% RH, and loses the moisture during drying segment
temperature below which no significant thermal decomposition is seen (DSC) [5]: ≥ 140 °C
